# Laboratory results: paper PMC4114755, “Identification of Polyketide Inhibitors Targeting 3-Dehydroquinate Dehydratase in the Shikimate Pathway of Enterococcus faecalis” (PLoS ONE, 2014)
# T1: efDHQase (3-dehydroquinate dehydratase from Enterococcus faecalis; also DEF) (Enterococcus faecalis, UniProt P36923)
# T1 construct: gene aroD; full-length aroD in modified pET-15b, N-terminal 10xHis tag removed with thrombin; expressed in E. coli aroD- pTara; homodimer; catalytic Lys170
# T1 sequence (P36923 1-253): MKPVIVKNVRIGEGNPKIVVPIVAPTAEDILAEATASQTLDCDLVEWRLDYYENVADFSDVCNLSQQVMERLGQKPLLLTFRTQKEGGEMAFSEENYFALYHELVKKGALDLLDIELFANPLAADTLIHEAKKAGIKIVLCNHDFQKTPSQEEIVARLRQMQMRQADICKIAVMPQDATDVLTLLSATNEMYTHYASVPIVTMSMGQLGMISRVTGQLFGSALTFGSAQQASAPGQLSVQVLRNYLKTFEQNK
# B1: efDHQase (3-dehydroquinate dehydratase from Enterococcus faecalis; also DEF) (Enterococcus faecalis V583) (protein)
# chain: T1 sequence (P36923 1-253)
# notes: full-length aroD in modified pET-15b, N-terminal 10xHis tag removed with thrombin; expressed in E. coli aroD- pTara; homodimer; catalytic Lys170
# Target: T1, efDHQase (3-dehydroquinate dehydratase from Enterococcus faecalis; also DEF)
# Experiment: efSHD-coupled NADPH oxidation assay, […] nm
# Format: biochemical
# Details: not given
row,Molecule,Ki
1,O=c1c(O)c(-c2ccc(O)c(O)c2)oc2c(O[C@@H]3O[C@H](CO)[C@@H](O)[C@H](O)[C@H]3O)c(O)cc(O)c12 [Gossypin],79 ± 14 µM
2,C[C@@H]1O[C@@H](OC[C@H]2O[C@@H](Oc3c(-c4ccc(O)c(O)c4)oc4cc(O)cc(O)c4c3=O)[C@H](O)[C@@H](O)[C@@H]2O)[C@H](O)[C@H](O)[C@H]1O [Rutin],210 ± 28 µM
3,O=c1cc(-c2ccc(O)c(O[C@@H]3O[C@H](CO)[C@@H](O)[C@H](O)[C@H]3O)c2)oc2cc(O[C@@H]3O[C@H](CO)[C@@H](O)[C@H](O)[C@H]3O)cc(O)c12 [Luteolin-3′-7-diglucoside],89 ± 3 µM
4,O=c1cc(-c2ccc(O)c(O)c2)oc2cc(O[C@@H]3O[C@H](CO)[C@@H](O)[C@H](O)[C@H]3O)cc(O)c12 [Luteolin-7-glucoside],69 ± 16 µM
5,O=c1ccc2cc(O[C@@H]3O[C@H](CO)[C@@H](O)[C@H](O)[C@H]3O)c(O)cc2o1 [Aesculine],180 ± 38 µM
6,C[C@@H]1O[C@@H](O[C@H]2[C@H](Oc3cc(O)c4c(=O)cc(-c5ccc(O)cc5)oc4c3)O[C@H](CO)[C@@H](O)[C@@H]2O)[C@H](O)[C@H](O)[C@H]1O [Rhoifolin],19 ± 9 µM
7,O=c1ccc2ccc(O)cc2o1 [7-Hydroxycoumarin],42 ± 19 µM
8,O=c1cc(-c2ccc(O)c(O)c2)oc2cc(O)c([C@@H]3O[C@H](CO)[C@@H](O)[C@H](O)[C@H]3O)c(O)c12 [Homoorientin],140 ± 11 µM
9,O=C(/C=C/c1ccc(O)c(O)c1)c1ccc(O[C@@H]2O[C@H](CO)[C@@H](O)[C@H](O)[C@H]2O)c(O)c1O [Marein],340 ± 79 µM

# Substrate: O=C1C[C@@](O)(C(=O)O)C[C@@H](O)[C@@H]1O
# Experiment: purified protein
# Format: biochemical, Enterococcus faecalis
# Details: 0.25 mM NADPH, 50 mM HEPES pH 7.5, 25°C, 10 nM efSHD as coupling enzyme
Molecule,Km,kcat
B1,65 µM,110 s⁻¹
